The results in this text go back to patent US11918662B2, “Heterocyclic compounds and imaging agents for imaging huntingtin protein” (CHDI Foundation, Inc., priority 2020, dated 2024).

Structures are written as SMILES. Where only a bound is given, the exact number is not on record here.

T1 sequence (P42858 with tags, fused parts or gaps with the stated changes limits assumed): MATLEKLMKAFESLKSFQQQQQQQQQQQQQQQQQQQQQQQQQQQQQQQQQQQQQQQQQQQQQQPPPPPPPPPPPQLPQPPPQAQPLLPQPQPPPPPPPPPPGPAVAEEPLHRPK

The assay has as its target T1, MBP-HTT(1-89)Q46-His(6×) (“Exon1-Q46”) protein aggregates (Homo sapiens, UniProt P42858, INS38QQQQQQQQQQQQQQQQQQQQQQQQQ).
T1 construct: MBP-HTT(1-89)Q46-His(6×); His(6×) (C); made in house
Description: Exon1-Q46 Radioligand Binding Assay. The settings on record: displacement of 0.3 nM [3H3-methyl]-5-((5-methoxypyridin-2-yl)methoxy)-2-(pyrazin-2-yl)benzo[d]oxazole from 1 μM aggregated Exon1-Q46, 60 minutes at 37° C.; read-out: Potency Range (IC50). Here is the method: Exon1-Q46 Radioligand Binding Assay
For experiments 30 μM MBP-Exon1-Q46 was incubated with 150 μg/mL thrombin in assay buffer (150 mM NaCl, 50 mM Tris pH 8.0) and 2 mM CaCl2 for 16 hours at 37° C. Aggregated Exon1-Q46 was pelleted by centrifugation for 5 minutes at 13,000 rpm in a bench top centrifuge and re-dissolved in the same volume of assay buffer. […] For the RBA, Q46 protein aggregates and test compounds were pre-incubated in assay buffer for 20 minutes at room temperature, in 100 μL/well in a 96-well plate (pp, round bottom). Then, ligand was added in 50 μL/well and incubated for 60 minutes at 37° C. Final assay concentrations were […] test compound, 1 μM Exon1-Q46 protein (equivalent monomer concentration) and 0.3 nM ligand [^3H3-methyl]-5-((5-methoxypyridin-2-yl)methoxy)-2-(pyrazin-2-yl)benzo[d]oxazole. Samples were transferred onto GF/B filter plates and washed 2× with 200 μL PBS using a Filtermate Harvester. After drying filter plates for 1 hour at 55° C., the back of the plates were sealed with foil and 30 μL/well scintillation fluid (Packard MicroScint 40) added, incubated for 15 minutes in the dark and counted in a MicroBeta reader. […] IC50 values were determined with a sigmoidal inhibition model with four variables (top, bottom, slope, IC50) in a global fit using the normalized replicate data.
On to `COc1cncc(NC(=O)CCn2c(=O)c3cccn3c3ccc(F)cc32)c1` [Example 3-11], for which the IC50 was < 100 nM. With `COc1ccc(NC(=O)CCn2c(=O)c3cccn3c3ccc(F)cc32)cn1` [Example 3-12] the figure was < 100 nM; with `COc1ccnc(NC(=O)CCn2c(=O)c3cccn3c3ccc(F)cc32)c1` [Example 3-13], < 100 nM. Turning to `COc1ccc(N(C)C(=O)CCn2c(=O)c3cccn3c3ccc(F)cc32)cc1` [Example 3-14], the IC50 is < 100 nM. The figure for `O=C(CCn1c(=O)c2cccn2c2ccc(F)cc21)Nc1ccccc1Cl` [Example 3-15] is < 100 nM; for `COc1ccccc1NC(=O)CCn1c(=O)c2cccn2c2ccc(F)cc21` [Example 3-16] it is < 100 nM; for `COc1cccnc1NC(=O)CCn1c(=O)c2cccn2c2ccc(F)cc21` [Example 3-17] it is < 100 nM. With `O=C(CCn1c(=O)c2cccn2c2ccc(F)cc21)Nc1ccncc1` [Example 3-18] the figure was < 100 nM. The figure for `O=C(CCn1c(=O)c2cccn2c2ccc(F)cc21)Nc1ccccn1` [Example 3-19] is < 100 nM; for `COc1cccc(NC(=O)CCn2c(=O)c3cccn3c3ccc(F)cc32)c1` [Example 3-20] it is < 100 nM. As for `Cc1cccc(NC(=O)CCn2c(=O)c3cccn3c3ccc(F)cc32)c1` [Example 3-21], the IC50 was < 100 nM. With `O=C(CCn1c(=O)c2cccn2c2ccc(F)cc21)Nc1ccccc1` [Example 3-22] the figure was < 100 nM. With `O=C(CCn1c(=O)c2cccn2c2ccc(F)cc21)Nc1cccnc1` [Example 3-23] the figure was < 100 nM; with `Cc1ccc(NC(=O)CCn2c(=O)c3cccn3c3ccc(F)cc32)nc1` [Example 3-24], < 100 nM. Regarding `O=C(CCn1c(=O)c2cccn2c2ccc(F)cc21)Nc1cccc(Cl)c1` [Example 3-25], the IC50 was < 100 nM. With `O=C(CCn1c(=O)c2cccn2c2ccc(F)cc21)Nc1ccc(Cl)cc1` [Example 3-26], the IC50 is < 100 nM.

With `Cc1ccccc1NC(=O)CCn1c(=O)c2cccn2c2ccc(F)cc21` [Example 3-27], the IC50 is < 100 nM.

`O=C(CCn1c(=O)c2cccn2c2ccc(F)cc21)NCc1ccccc1` [Example 3-28]: the IC50 was < 100 nM. The figure for `COC1CCC(NC(=O)CCn2c(=O)c3cccn3c3ccc(F)cc32)CC1` (stereo not shown) [Example 3-29] is < 100 nM; for `O=C(CCn1c(=O)c2cccn2c2ccc(F)cc21)NCCc1ccccc1` [Example 3-30] it is < 100 nM; for `O=C(CCn1c(=O)c2cccn2c2ccc(F)cc21)N1Cc2ccccc2C1` [Example 3-31] it is < 100 nM. With `CC1CCC(NC(=O)CCn2c(=O)c3cccn3c3ccc(F)cc32)CC1` (stereo not shown) [Example 3-32] the figure was < 100 nM; with `O=C(CCn1c(=O)c2cccn2c2ccc(F)cc21)NCCc1cccnc1` [Example 3-33], < 100 nM. The figure for `O=C(CCn1c(=O)c2cccn2c2ccc(F)cc21)NC1CCCCC1` [Example 3-34] is < 100 nM; for `O=C(CCn1c(=O)c2cccn2c2ccc(F)cc21)NCC1CCCCC1` [Example 3-35] it is < 100 nM. Turning to `CN(C)C(=O)CCn1c(=O)c2cccn2c2ccc(F)cc21` [Example 3-36], the IC50 was < 100 nM. With `O=C(CCn1c(=O)c2cccn2c2ccc(F)cc21)NC1CCCC1` [Example 3-37] the figure was < 100 nM; with `CCNC(=O)CCn1c(=O)c2cccn2c2ccc(F)cc21` [Example 3-38], < 100 nM. In the case of `CN(C)CCNC(=O)CCn1c(=O)c2cccn2c2ccc(F)cc21` [Example 3-39], the IC50 was in the range of 100 to 500 nM. With `COC1CCN(C(=O)CCn2c(=O)c3cccn3c3ccc(F)cc32)C1` (stereo not shown) [Example 3-40] the figure was < 100 nM. With `O=C(CCn1c(=O)c2cccn2c2ccc(F)cc21)N1CCCC(C(F)(F)F)C1` (stereo not shown) [Example 3-41] the figure was < 100 nM; with `O=C(CCn1c(=O)c2cccn2c2ccc(F)cc21)N1CCC(C(F)(F)F)CC1` [Example 3-42], < 100 nM. The figure for `O=C(CCn1c(=O)c2cccn2c2ccc(F)cc21)N1CCCC1` [Example 3-43] is < 100 nM.

With `O=C(CCn1c(=O)c2cccn2c2ccc(F)cc21)N1CCc2ccccc2C1` [Example 3-44], the IC50 was < 100 nM. With `CC1CCC(N(C)C(=O)CCn2c(=O)c3cccn3c3ccc(F)cc32)CC1` (stereo not shown) [Example 3-45] the figure was < 100 nM; with `O=C(CCn1c(=O)c2cccn2c2ccc(F)cc21)N1CCc2ccccc21` [Example 3-46], < 100 nM; with `O=C(CCn1c(=O)c2cccn2c2ccc(F)cc21)N1CCCc2ccccc21` [Example 3-47], < 100 nM. As to `COc1cc2c(cn1)CCN(C(=O)CCn1c(=O)c3cccn3c3ccc(F)cc31)C2` [Example 3-48], the IC50 is < 100 nM. With `Cn1c2c(ccc1=O)CN(C(=O)CCn1c(=O)c3cccn3c3ccc(F)cc31)CC2` [Example 3-49] the figure was < 100 nM.

In the case of `O=C(CCn1c(=O)c2cccn2c2ccc(F)cc21)N1CCc2ncccc2C1` [Example 3-50], the IC50 was < 100 nM.

On to `O=C(CCn1c(=O)c2cccn2c2ccc(F)cc21)N1CCc2cnccc2C1` [Example 3-51], for which the IC50 is < 100 nM. The figure for `O=C(CCn1c(=O)c2cccn2c2ccc(F)cc21)N1CCc2ccncc2C1` [Example 3-52] is < 100 nM; for `O=C(CCn1c(=O)c2cccn2c2ccc(F)cc21)N1CCc2cccnc21` [Example 3-53] it is < 100 nM. The figure for `O=C(CCn1c(=O)c2cccn2c2ccc(F)cc21)N1Cc2ccncc2C1` [Example 3-54] is < 100 nM. With `O=C(CCn1c(=O)c2cccn2c2ccc(F)cc21)N1Cc2cccnc2C1` [Example 3-55] the figure was < 100 nM. In the case of `O=C(CCn1c(=O)c2cccn2c2ccc(F)cc21)N1CCc2cccnc2C1` [Example 3-56], the IC50 is < 100 nM. With `O=C(CCn1c(=O)c2cccn2c2ccc(F)cc21)N1CCc2ccncc21` [Example 3-57] the figure was < 100 nM; with `O=C(CCn1c(=O)c2cccn2c2ccc(F)cc21)N1CCc2cnccc21` [Example 3-58], < 100 nM. The figure for `O=C(CCn1c(=O)c2cccn2c2ccc(F)cc21)N1CCc2ncccc21` [Example 3-59] is < 100 nM. With `COc1ccc(NC(=O)CCn2c(=O)c3c(C)ccn3c3ccc(F)cc32)nc1` [Example 3-60] the figure was < 100 nM. In the case of `COc1ccc(NC(=O)CCn2c(=O)c3c(Cl)ccn3c3ccc(F)cc32)nc1` [Example 3-61], the IC50 was < 100 nM. With `O=C(CCn1c(=O)c2cc(F)cn2c2ccc(F)cc21)NCc1ccccn1` [Example 3-62] the figure was < 100 nM.

With `Cc1ccc(CNC(=O)CCn2c(=O)c3cc(F)cn3c3ccc(F)cc32)nc1` [Example 3-63], the IC50 was < 100 nM. With `O=C(CCn1c(=O)c2cc(F)cn2c2ccc(F)cc21)N1Cc2ccncc2C1` [Example 3-64] the figure was < 100 nM.

Regarding `O=C(CCn1c(=O)c2cc(F)cn2c2ccc(F)cc21)N1Cc2cccnc2C1` [Example 3-65], the IC50 is < 100 nM.

For `COc1ccc(NC(=O)CCn2c(=O)c3cc(F)cn3c3ccc(F)cc32)nc1` [Example 3-66], the half-maximal inhibitory concentration (IC50) is < 100 nM. With `COc1ccc(NC(=O)CCn2c(=O)c3cc(C)cn3c3ccc(F)cc32)nc1` [Example 3-67] the figure was < 100 nM; with `Cc1ccc(NC(=O)CCn2c(=O)c3cccn3c3ccccc32)cn1` [Example 3-68], < 100 nM.

As for `Cc1ccc(NC(=O)CCNc2cc(F)ccc2-n2cccn2)cc1` [Example 3-69], the IC50 fell in the range of 100 to 500 nM.

For the compound `Cc1ccc(NC(=O)CCCn2c(=O)c3cccn3c3ncccc32)cc1` [Example 4-1], the IC50 is < 100 nM.

As to `COc1ccc(NC(=O)CCCn2c(=O)c3cccn3c3ncccc32)cc1` [Example 4-2], the IC50 was < 100 nM. The figure for `COc1cccc(NC(=O)CCCn2c(=O)c3cccn3c3ncccc32)c1` [Example 4-3] is < 100 nM. As for `COc1ccnc(NC(=O)CCCn2c(=O)c3cccn3c3ncccc32)c1` [Example 4-4], the IC50 is < 100 nM. With `COc1cccc(NC(=O)CCCn2c(=O)c3cccn3c3cccnc32)c1` [Example 4-5], the IC50 is < 100 nM.

With `Cc1ccc(NC(=O)CCCn2c(=O)c3cccn3c3cccnc32)cc1` [Example 4-6], the IC50 is < 100 nM. The figure for `COc1ccc(NC(=O)CCCn2c(=O)c3cccn3c3cccnc32)cc1` [Example 4-7] is < 100 nM. The figure for `COc1ccnc(NC(=O)CCCn2c(=O)c3cccn3c3cccnc32)c1` [Example 4-8] is < 100 nM. The figure for `COc1ccc(NC(=O)CCCn2c(=O)c3cccn3c3cccnc32)nc1` [Example 4-9] is < 100 nM; for `O=C(CCCn1c(=O)c2cccn2c2cccnc21)NC1CCCCCC1` [Example 4-10] it is < 100 nM. Consider `Cc1ccc(NC(=O)CCCn2c(=O)c3cccn3c3ccccc32)cc1` [Example 5-1], for which the IC50 is < 100 nM.
